Here are results for 14 molecules from patent US9907852B2, “Anticancer agent and side-effect-alleviating agent” (National University Corporation University of Toyama, priority 2014, dated 2018).

The first data set has as its system Miapaca-2 cells. Kind of data set: Tumor size in model transplanted pancreas cancer, existing anticancer agents combined with Burdock Fruit extract (Test Example 6). The class given is in vivo, mice. The settings on record: anticancer agent combined with GBS-01 750 mg/kg oral 5 days a week; about 4 weeks. On the procedure: Miapaca-2 cells (5×10^6 cells/200 μl ) were subcutaneously transplanted under the armpit of BALB/cAJcl-nu/nu mice (CLEA Japan, Inc.), and after feeding of about 2 weeks those that grew to the size of about 100 mm^3 or about 600 mm^3 were selected and employed as the subject mice to be treated.
Thus prepared transplanted mice were divided into the respective groups, that is, an untreated group, a group administered an existing anticancer agent as a component having a variety of anticancer activities, a Burdock Fruit extract administered group and a group of combined administration of these agents, and the treatment was continued over about 4 weeks for 5 to 6 species of tumors in the respective groups. The existing anticancer agents used include Carboplatin (CBDCA, Bristol-Myers, peritoneal administration, 60 mg/kg once a week), Doxorubicin (Kyowa Hakko, peritoneal administration, 10 mg/kg twice a week), Oxaliplatin (Yakult, peritoneal administration, 8 mg/kg once a week), Everolimus (Novartis, oral administration, 5 mg/kg 5 times a week) , Bortezomib (Janssen Pharma, peritoneal administration, 1 mg/kg twice a week), Irinotecan (Yakult, peritoneal administration, 25 mg/kg twice a week), and Hydroxychloroquine (Sanofi, peritoneal administration, 100 mg/kg 5 times a week) . As for Burdock Fruit extract, 10% arctigenin-containing Burdock Fruit extract (Kracie Co., GBS-01) was used and orally administered at a dose of 750 mg/kg 5 days a week.
At intervals of 3 to 4 days, the mouse was fixed and the length (L), the minor axis (W) and the height (H) of tumor were measured by a precision digital vernier micrometer, from which the tumor size was calculated using the formula: Tumor size=4/3*pi*L/2*H/2*W/2(pi=3.14)
When the height cannot be measured, the formula: Tumor size=4/3*pi*L/2*(W/2)^2 was used for convenience.
With `CC(C)C[C@H](NC(=O)[C@H](Cc1ccccc1)NC(=O)c1cnccn1)B(O)O` [bortezomib, Bortezomib], the “tumor size reduced compared to a single preparation of Burdock Fruit extract” value (shortened to “tumor size reduced … of Burdock Fruit extract”) is given as 1.8 times and the “tumor size reduced compared to a single preparation of the anticancer agent” value (“tumor size reduced … of the anticancer agent” for short) amounted to 1.4 times.

Turning to `COc1cccc2c1C(=O)c1c(O)c3c(c(O)c1C2=O)C[C@@](O)(C(=O)CO)C[C@@H]3O[C@H]1C[C@H](N)[C@H](O)[C@H](C)O1` [doxorubicin, Doxorubicin], the “tumor size reduced … of Burdock Fruit extract” value worked out at 1.4 times and the “tumor size reduced … of the anticancer agent” value was “about 1.5 times”.

On to `CO[C@H]1C[C@@H]2CC[C@@H](C)[C@@](O)(O2)C(=O)C(=O)N2CCCC[C@H]2C(=O)O[C@H]([C@H](C)C[C@@H]2CC[C@@H](OCCO)[C@H](OC)C2)CC(=O)[C@H](C)/C=C(\C)[C@@H](O)[C@@H](OC)C(=O)[C@H](C)C[C@H](C)/C=C/C=C/C=C/1C` [everolimus, Everolimus], for which the “tumor size reduced … of Burdock Fruit extract” value worked out at 2.1 times and the “tumor size reduced … of the anticancer agent” value amounted to 1.4 times.

With `CCN(CCO)CCCC(C)Nc1ccnc2cc(Cl)ccc12` (centres unmarked) [hydroxychloroquine], the “tumor size reduced … of Burdock Fruit extract” value is listed as 1.9 times and the “tumor size reduced … of the anticancer agent” value is on record as 2.5 times.

With `CCc1c2c(nc3ccc(OC(=O)N4CCC(N5CCCCC5)CC4)cc13)-c1cc3c(c(=O)n1C2)COC(=O)[C@]3(O)CC` [irinotecan, Irinotecan], the “tumor size reduced … of Burdock Fruit extract” value amounted to 2.1 times and the “tumor size reduced … of the anticancer agent” value is reported as 1.5 times.

Test system in a further data set: not listed separately
The data set can be described thus: Solubility in water.
Details: not given
The class given is physicochemical.
On to `COc1cc(C[C@H]2C(=O)OC[C@@H]2Cc2ccc(OC)c(OC)c2)ccc1O` [arctigenin], for which the solubility in water entry is “slightly soluble”.

On to `COc1ccc(C[C@H]2COC(=O)[C@@H]2Cc2ccc(O[C@@H]3O[C@H](CO)[C@@H](O)[C@H](O)[C@H]3O)c(OC)c2)cc1OC` [arctiin], for which the solubility in water result is on record as “slightly soluble”.

The next data set relates to PANC-1 (ATCC No. CRL-1469) cells.
Assay: not given
Details: not given
On to `Cc1cn([C@H]2C[C@H](N=[N+]=[N-])[C@@H](CO)O2)c(=O)[nH]c1=O` [AZT], for which the “Magnification of LD50 decrease” value is reported as 4.67.

With `Nc1nc(OCc2ccccc2)c2nc[nH]c2n1` [Benzylguanine], the “Magnification of LD50 decrease” value is given as 8.24.

Turning to `C[C@]12CC[C@H](OS(=O)(=O)O)CC1=CC[C@@H]1[C@@H]2CC[C@]2(C)C(=O)CC[C@@H]12` [DHEA-S], the “Magnification of LD50 decrease” value came out at 3.13.

For `c1cc(-c2cnn3cc(-c4ccc(OCCN5CCCCC5)cc4)cnc23)ccn1` [Dorsomorphin], the “Magnification of LD50 decrease” value was determined as 6.14.

Regarding `CNC(=N)NCCC[C@H](N)C(=O)O` [L-NMMA], the “Magnification of LD50 decrease” value is 1.72.

For the molecule `CC(C)[C@H](CO)Nc1nc(Nc2cccc(Cl)c2)c2ncn(C(C)C)c2n1` [Purvalanol A], the “Magnification of LD50 decrease” value is reported as 1.71.

As for `CCCCOc1cc(CC2CNC(=O)N2)ccc1OC` (centres unmarked) [Ro-20-1724], the “Magnification of LD50 decrease” value was determined as 1.66.

In another data set the test system is pancreas cancer cell strain PANC-1.
Assay: not given
Particulars: Non-Patent Document 1; cited from earlier work.
With `COc1cc(C[C@H]2C(=O)OC[C@@H]2Cc2ccc(OC)c(OC)c2)ccc1O` [arctigenin], the “removal of the viability of tumor cells in a low nutritional state” value was “effective”.
